# Patent US9416139B2, “Spiro ring compound as hepatitis C virus (HCV) inhibitor and uses thereof” (SUNSHINE LAKE PHARMA CO., LTD., priority 2012, dated 2016)
# Read-outs that look alike come from different tables or passages of the source.
# Key:
# [1] = tested on: HCV 1a replicon; test: HCV GT1a replicon assay in Huh-7 cells; assay type: cell-based, Hepatitis C virus; conditions: Huh-7 cells transfected with HCV replicon, 72 hours incubation, read-out: EC50 against HCV 1a genotype
# Protocol: (§1) HCV Replicon System was utilized as an evaluation model in the present disclosure for verifying the effects of the compounds disclosed herein on HCV. An HCV Replicon assay was first described in Science, 1999, 285 (5424), 110-3. […] To determine the potential anti-HCV effects of the test compounds, luciferase assay and antibiotic Neomycin resistance gene were tested according to the method described in Science. 1999 Jul. 2; 285 (5424), 110-3 and J. Virol. 2003 March; 77 (5), 3007-19.
# (§2) In a word, the compounds disclosed herein were tested by using human hepatic carcinoma cell line which is transfected stably HCV GT1a, GT1b or GT2a replicon respectively, and resistant cells Y93H, L31F, P32L or I302V and wild-type cells HCV 1b. HCV Replicon System disclosed herein containing Neomycin resistance gene and Luciferase Reporter Gene, the level of HCV replication in host cells is characterized by the expression level of the NEO gene expression level or Luciferase Reporter Gene, and the effects of the compounds herein inhibit HCV replication can be evaluated. In this article, a real-time quantitative polymerase chain reaction (qPCR) method was used to detect NEO gene expression level, and chemiluminescence method was used to test Luciferase Reporter Gene expression level.
# (§3) 1. Test Method for Measuring EC50 of the Compounds Base on Luciferase Assay.
# (§4) The Huh-7 cells transfected with HCV replicons system were seeded into 96-well plates (8,000 cells in 125 μL/well) respectively; each test compound was diluted to desired concentration using 5-fold serial dilutions protocol, 10 doses in duplicate, and added to wells with POD™ 810 Plate Assembler. […] In this paper, experiments were repeated twice and set the holes without compounds as negative control.
# (§5) 2. Test Method for Measuring EC50 of the Compounds by Detecting Antibiotic G418 Resistance Gene NEO Gene.
# (§6) In this paper, experiments were repeated twice and set the holes without compounds as negative control.
# [2] = tested on: HCV 1b replicon; test: HCV GT1b replicon assay in Huh-7 cells; assay type: cell-based, Hepatitis C virus; conditions: Huh-7 cells transfected with HCV replicon, 72 hours incubation, read-out: EC50 against HCV 1b genotype
# Protocol: as §1, §2, §3, §4, §5, §6
Compound,EC50 ([1]; Hepatitis C virus),EC50 ([2]; Hepatitis C virus),EC50 [1],EC50 [2]
COC(=O)N[C@H](C(=O)N1CCC[C@H]1c1ncc(-c2ccc(-c3ccc(-c4ccc5nc([C@@H]6CCCN6C(=O)[C@@H](NC(=O)OC)C(C)C)[nH]c(=O)c5c4)c4c3CC3(CCCC3)C4)cc2)[nH]1)C(C)C [Example 1],0.76 nM,0.042 nM,,
COC(=O)N[C@H](C(=O)N1CCC[C@H]1c1cc(=O)c2cc(-c3ccc(-c4ccc(-c5cnc([C@@H]6CCCN6C(=O)[C@@H](NC(=O)OC)C(C)C)[nH]5)cc4)c4c3CC3(CCCC3)C4)ccc2[nH]1)C(C)C [Example 2],1.28 nM,0.087 nM,,
COC(=O)N[C@H](C(=O)N1CCC[C@H]1C1=Nc2cc(-c3ccc(-c4ccc(-c5cnc([C@@H]6CCCN6C(=O)[C@@H](NC(=O)OC)C(C)C)[nH]5)cc4)c4c3CC3(CCCC3)C4)ccc2C(C)(C)N1)C(C)C [Example 3],0.537 nM,0.04 nM,,
COC(=O)N[C@H](C(=O)N1CCC[C@H]1C1=Nc2cc(-c3ccc(-c4ccc(-c5cnc([C@@H]6CCCN6C(=O)[C@@H](NC(=O)OC)C(C)C)[nH]5)cc4)c4c3CC3(CCCC3)C4)ccc2C2(COC2)N1)C(C)C [Example 4],0.089 nM,0.016 nM,,
COC(=O)N[C@H](C(=O)N1CCC[C@H]1C1=Nc2cc(-c3ccc(-c4ccc(-c5cnc([C@@H]6CCCN6C(=O)[C@@H](NC(=O)OC)C(C)C)[nH]5)cc4)c4c3CC3(CCCC3)C4)ccc2S(=O)(=O)N1)C(C)C [Example 5],0.078 nM,0.023 nM,,
COC(=O)N[C@H](C(=O)N1CCC[C@H]1c1nc2ccc(-c3ccc(-c4ccc5nc([C@@H]6CCCN6C(=O)[C@@H](NC(=O)OC)C(C)C)[nH]c(=O)c5c4)c4c3CC3(CCCC3)C4)cc2c(=O)[nH]1)C(C)C [Example 6],0.109 nM,0.077 nM,,
COC(=O)N[C@H](C(=O)N1CCC[C@H]1c1ncc(C#Cc2ccc(-c3ccc4nc([C@@H]5CCCN5C(=O)[C@@H](NC(=O)OC)C(C)C)[nH]c(=O)c4c3)c3c2CC2(CCCC2)C3)[nH]1)C(C)C [Example 7],0.21 nM,0.103 nM,,
CCC(C)[C@H](NC(=O)OC)C(=O)N1CCC[C@H]1c1nc(=O)c2cc(-c3ccc(-c4ccc(-c5cnc([C@@H]6CCCN6C(=O)[C@@H](NC(=O)OC)C(C)C)[nH]5)cc4)c4c3CC3(CCCCC3)C4)ccc2[nH]1 (stereo partly drawn) [Example 8],0.982 nM,0.065 nM,,
COC(=O)N[C@H](C(=O)N1C[C@@H](F)C[C@H]1c1nc(-c2ccc(-c3ccc(-c4ccc5nc([C@@H]6C[C@H](F)CN6C(=O)[C@@H](NC(=O)OC)C(C)C)[nH]c(=O)c5c4)c4c3CC3(CCCCC3)C4)cc2)c[nH]1)C(C)C [Example 9],0.439 nM,0.072 nM,,
COC(=O)N[C@H](C(=O)N1CCC[C@H]1c1ncc(-c2ccc(-c3ccc(-c4ccc5nc([C@@H]6CC7CC7N6C(=O)[C@@H](NC(=O)OC)C(C)C)[nH]c(=O)c5c4)c4c3CC3(CCN(C)CC3)C4)cc2)[nH]1)C(C)C (stereo partly drawn) [Example 10],1.27 nM,0.438 nM,,
COC(=O)N[C@H](C(=O)N1CCC[C@H]1c1ncc(-c2ccc(-c3ccc(-c4ccc5nc([C@@H]6CC7CC7N6C(=O)[C@@H](NC(=O)OC)C(C)C)[nH]c(=O)c5c4)c4c3OC3(CCCC3)O4)cc2)[nH]1)C(C)C (stereo partly drawn) [Example 11],0.068 nM,0.032 nM,,
COC(=O)N[C@H](C(=O)N1CC(F)(F)CC1c1nc(-c2ccc(-c3ccc(-c4ccc5nc([C@@H]6CC(F)(F)CN6C(=O)[C@@H](NC(=O)OC)C(C)C)[nH]c(=O)c5c4)c4c3CC3(CCOCC3)C4)cc2)c[nH]1)C(C)C (stereo partly drawn) [Example 12],0.38 nM,0.049 nM,,
COC(=O)N[C@H](C(=O)N1CCC[C@H]1c1ncc(-c2ccc(-c3ccc(-c4ccc5nc([C@@H]6CCCN6C(=O)[C@@H](NC(=O)OC)c6ccccc6)[nH]c(=O)c5c4)c4c3CC3(CCCC3)C4)cc2)[nH]1)c1ccccc1 [Example 13],2.07 nM,0.273 nM,,
COC(=O)N[C@@H](C)C(=O)N1CCC[C@H]1c1ncc(-c2ccc(-c3ccc(-c4ccc5nc([C@@H]6CCCN6C(=O)[C@H](C)NC(=O)OC)[nH]c(=O)c5c4)c4c3CC3(CCCC3)C4)cc2)[nH]1 [Example 14],0.884 nM,0.013 nM,,
COC(=O)N[C@H](C(=O)N1CCC[C@H]1c1ncc(-c2ccc(-c3ccc(-c4ccc5nc([C@@H]6CCCN6C(=O)[C@@H](NC(=O)OC)C6CCCCC6)[nH]c(=O)c5c4)c4c3CC3(CCCC3)C4)cc2)[nH]1)C1CCCCC1 [Example 15],0.206 nM,0.142 nM,,
COC(=O)N[C@H](C(=O)C1CCCC[C@H]1c1nc2ccc(-c3ccc(-c4ccc(-c5cnc(C6CCCCN6C(=O)[C@@H](NC(=O)OC)C(C)C)[nH]5)cc4)c4c3CC3(CCCC3)C4)cc2c(=O)[nH]1)C(C)C (stereo partly drawn) [Example 16],0.089 nM,0.036 nM,,
COC(=O)N[C@H](C(=O)N1C[C@@H](C)C[C@H]1n1cnc(-c2ccc(-c3ccc(-c4ccc5nc([C@@H]6C[C@H](C)CN6C(=O)[C@@H](NC(=O)OC)C(C)C)[nH]c(=O)c5c4)c4c3CC3(CCCC3)C4)cc2)c1)C(C)C [Example 17],,,0.023 nM,0.006 nM
COC(=O)N[C@H](C(=O)N1CC(C)(C)C[C@H]1c1ncc(-c2ccc(-c3ccc(-c4ccc5nc([C@@H]6CC(C)(C)CN6C(=O)[C@@H](NC(=O)OC)C(C)C)[nH]c(=O)c5c4)c4c3CC3(CCCC3)C4)cc2)[nH]1)C(C)C [Example 18],0.326 nM,0.065 nM,,
CC(C)[C@H](NC(=O)Oc1ccccc1)C(=O)N1CC(C)(C)C[C@H]1c1ncc(-c2ccc(-c3ccc(-c4ccc5nc([C@@H]6CC(C)(C)CN6C(=O)[C@@H](NC(=O)Oc6ccccc6)C(C)C)[nH]c(=O)c5c4)c4c3CC3(CCCC3)C4)cc2)[nH]1 [Example 19],4.77 nM,0.436 nM,,
COC(=O)N[C@H](C(=O)N1CCC[C@H]1C(=O)Nc1ccc(-c2ccc(-c3ccc4nc([C@@H]5CCCN5C(=O)[C@@H](NC(=O)OC)C(C)C)[nH]c(=O)c4c3)c3c2CC2(CCCC2)C3)cc1)C(C)C [Example 20],3.67 nM,0.685 nM,,
COC(=O)N[C@H](C(=O)N1CC2(CC2)C[C@H]1c1ncc(-c2ccc(-c3ccc(-c4ccc5nc([C@@H]6CC7(CC7)CN6C(=O)[C@@H](NC(=O)OC)C(C)C)[nH]c(=O)c5c4)c4c3CC3(CCCC3)C4)cc2)[nH]1)C(C)C [Example 21],0.08 nM,0.029 nM,,
COC(=O)N[C@H](C(=O)N1C2CC2C[C@H]1c1ncc(-c2ccc(-c3ccc(-c4ccc5nc([C@@H]6CC7CC7N6C(=O)[C@@H](NC(=O)OC)C(C)C)[nH]c(=O)c5c4)c4c3CC3(CCCC3)C4)cc2)[nH]1)C(C)C (stereo partly drawn) [Example 22],0.561 nM,0.072 nM,,
COC(=O)N[C@H](C(=O)N1[C@@H]2CC[C@@H](C2)[C@H]1c1ncc(-c2ccc(-c3ccc(-c4ccc5nc([C@@H]6[C@H]7CC[C@H](C7)N6C(=O)[C@@H](NC(=O)OC)C(C)C)[nH]c(=O)c5c4)c4c3CC3(CCCC3)C4)cc2)[nH]1)C(C)C [Example 23],0.31 nM,0.047 nM,,
COC(=O)N[C@H](C(=O)N1CC2(C[C@H]1c1ncc(-c3ccc(-c4ccc(-c5ccc6nc([C@@H]7CCCN7C(=O)[C@@H](NC(=O)OC)C(C)C)[nH]c(=O)c6c5)c5c4CC4(CCCC4)C5)cc3)[nH]1)OCCO2)C(C)C [Example 24],0.475 nM,0.099 nM,,
COC(=O)N[C@H](C(=O)N1CCC[C@H]1c1ncc(-c2ccc(-c3ccc(-c4ccc5nc([C@@H]6CC7CC7N6C(=O)[C@@H](NC(=O)OC)C(C)C)[nH]c(=O)c5c4)c4c3CC3(CCCC3)C4)c3c2CCC3)[nH]1)C(C)C (stereo partly drawn) [Example 25],0.829 nM,0.103 nM,,
COC(=O)N[C@H](C(=O)N1CCC[C@H]1c1ncc(-c2ccc(-c3ccc(-c4ccc5nc([C@@H]6CC7CC7N6C(=O)[C@@H](NC(=O)OC)C(C)C)[nH]c(=O)c5c4)c4c3CC3(CCCC3)C4)c3ccccc23)[nH]1)C(C)C (stereo partly drawn) [Example 26],0.727 nM,0.216 nM,,
COC(=O)N[C@H](C(=O)N1CCC[C@H]1c1ncc(-c2ccc(-c3ccc(-c4ccc5nc([C@@H]6CC7CC7N6C(=O)[C@@H](NC(=O)OC)C(C)C)[nH]c(=O)c5c4)c4c3CC3(CCCC3)C4)c3cnoc23)[nH]1)C(C)C (stereo partly drawn) [Example 27],1.53 nM,0.323 nM,,
